# Measured values published in patent publication US10093630B2, “Pyrazole compounds and methods of making and using same” (ABIDE THERAPEUTICS, INC., priority 2014, dated 2018).
# Read-outs that look alike come from different tables or passages of the source.
# Tests used:
# Assay in all cases: In vitro competitive activity-based protein profiling (gel-based, FP-Rh or HT-01 probe)
# Type in all cases: biochemical
# PLA2G7 = molecular target: T1, PLA2G7 (Mus musculus, UniProt Q60963); conditions: for inhibition at 1 µM: 1 μM inhibitor, read-out: % Inhibition at 1 μM, D = PLA2G7; for inhibition at 10 µM: 10 μM inhibitor, read-out: % Inhibition at 10 μM, D = PLA2G7; for IC50: mouse brain membrane fraction or cell lysates, 30 min preincubation at 37° C.
# T1 construct: Proteomes (mouse brain membrane fraction or cell lysates); from tissue; host or cells: mouse brain membrane fraction (or cell lysates, not specified)
# T1 sequence (Q60963 22-440): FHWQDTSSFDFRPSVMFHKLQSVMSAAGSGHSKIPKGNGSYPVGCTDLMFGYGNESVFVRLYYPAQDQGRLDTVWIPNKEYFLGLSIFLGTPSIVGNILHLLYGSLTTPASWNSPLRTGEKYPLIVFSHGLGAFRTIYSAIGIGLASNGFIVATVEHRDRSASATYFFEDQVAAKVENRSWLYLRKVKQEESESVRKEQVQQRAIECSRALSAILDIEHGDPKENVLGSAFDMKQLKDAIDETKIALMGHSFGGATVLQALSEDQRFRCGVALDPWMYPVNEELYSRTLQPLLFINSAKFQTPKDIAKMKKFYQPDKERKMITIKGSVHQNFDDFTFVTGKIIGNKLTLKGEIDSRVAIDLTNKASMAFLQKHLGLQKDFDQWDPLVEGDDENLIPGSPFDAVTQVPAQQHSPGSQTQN
# How it was run: (§1)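 Mouse brain membrane or cell lysate proteomes (1.0 mg/mL) preincubated with inhibitors 30 min at 37° C, then labelled with FP-Rh or HT-01 for 30 min at 37° C. After SDS-PAGE, activity quantified from fluorescent band intensity.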
# MAGL = molecular target: T2, MAGL (Mus musculus, UniProt O35678); conditions: for inhibition at 10 µM: 10 μM inhibitor; for inhibition at 1 µM: 1 μM inhibitor; for IC50: mouse brain membrane fraction or cell lysates, 30 min preincubation at 37° C., read-out: Mouse (IC50 value, nM) MAGL
# T2 construct: Proteomes (mouse brain membrane fraction or cell lysates); from tissue; host or cells: mouse brain membrane fraction (or cell lysates, not specified)
# T2 sequence (O35678 1-303): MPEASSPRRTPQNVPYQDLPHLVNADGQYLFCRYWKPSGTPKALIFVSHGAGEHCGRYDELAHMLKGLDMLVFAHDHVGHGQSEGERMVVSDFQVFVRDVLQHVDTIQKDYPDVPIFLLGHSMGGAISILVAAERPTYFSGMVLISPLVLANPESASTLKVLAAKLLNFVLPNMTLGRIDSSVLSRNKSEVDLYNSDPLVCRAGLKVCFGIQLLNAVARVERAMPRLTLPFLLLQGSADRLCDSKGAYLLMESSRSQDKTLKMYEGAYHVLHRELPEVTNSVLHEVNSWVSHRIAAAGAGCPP
# How it was run: as §1
# FAAH = molecular target: T3, FAAH (Mus musculus, UniProt O08914); conditions: for inhibition at 10 µM: 10 μM inhibitor, read-out: % Inhibition at 10 μM, B = FAAH; for inhibition at 1 µM: 1 μM inhibitor, read-out: % Inhibition at 1 μM, B = FAAH; for IC50: mouse brain membrane fraction or cell lysates, 30 min preincubation at 37° C., read-out: Mouse (IC50 value, nM) FAAH
# T3 construct: Proteomes (mouse brain membrane fraction or cell lysates); from tissue; host or cells: mouse brain membrane fraction (or cell lysates, not specified)
# T3 sequence (O08914 1-579): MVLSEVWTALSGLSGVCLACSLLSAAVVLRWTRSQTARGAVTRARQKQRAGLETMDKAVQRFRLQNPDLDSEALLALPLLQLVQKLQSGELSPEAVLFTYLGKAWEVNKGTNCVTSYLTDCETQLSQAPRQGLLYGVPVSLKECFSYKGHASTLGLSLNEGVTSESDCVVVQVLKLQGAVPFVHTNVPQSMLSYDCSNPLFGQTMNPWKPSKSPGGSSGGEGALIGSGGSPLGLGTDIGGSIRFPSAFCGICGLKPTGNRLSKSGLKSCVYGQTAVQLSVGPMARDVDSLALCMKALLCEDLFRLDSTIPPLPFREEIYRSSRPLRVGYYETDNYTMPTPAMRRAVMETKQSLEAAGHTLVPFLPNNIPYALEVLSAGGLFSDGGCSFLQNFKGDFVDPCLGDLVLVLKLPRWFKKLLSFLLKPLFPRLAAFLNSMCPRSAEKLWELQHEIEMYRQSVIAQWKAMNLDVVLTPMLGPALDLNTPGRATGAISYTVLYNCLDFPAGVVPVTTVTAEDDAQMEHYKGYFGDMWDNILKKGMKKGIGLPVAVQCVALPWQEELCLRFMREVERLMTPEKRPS
# How it was run: as §1
# ABHD6 = molecular target: T4, ABHD6 (Mus musculus, UniProt Q8R2Y0); conditions: for inhibition at 1 µM: 1 μM inhibitor, read-out: % Inhibition at 1 μM, C = ABHD6; for inhibition at 10 µM: 10 μM inhibitor, read-out: % Inhibition at 10 μM, C = ABHD6; for IC50: mouse brain membrane fraction or cell lysates, 30 min preincubation at 37° C., read-out: Mouse (IC50 value, nM) ABHD6
# T4 construct: Proteomes (mouse brain membrane fraction or cell lysates); from tissue; host or cells: mouse brain membrane fraction (or cell lysates, not specified)
# T4 sequence (Q8R2Y0 1-336): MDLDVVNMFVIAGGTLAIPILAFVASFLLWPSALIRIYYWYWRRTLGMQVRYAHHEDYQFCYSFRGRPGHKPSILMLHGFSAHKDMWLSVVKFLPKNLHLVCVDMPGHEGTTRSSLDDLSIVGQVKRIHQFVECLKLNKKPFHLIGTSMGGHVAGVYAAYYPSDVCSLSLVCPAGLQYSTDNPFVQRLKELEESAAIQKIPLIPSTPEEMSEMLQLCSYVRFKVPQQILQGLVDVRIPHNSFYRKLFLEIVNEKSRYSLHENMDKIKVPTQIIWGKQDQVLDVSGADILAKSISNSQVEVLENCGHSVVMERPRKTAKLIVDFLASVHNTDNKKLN
# How it was run: as §1
inhibition at 1 µM (PLA2G7) [%],inhibition at 10 µM (PLA2G7) [%],inhibition at 10 µM (MAGL) [%],inhibition at 10 µM (FAAH) [%],inhibition at 1 µM (ABHD6) [%],inhibition at 10 µM (ABHD6) [%],inhibition at 1 µM (PLA2G7; gel-based competitive ABPP) [%],inhibition at 1 µM (MAGL; gel-based competitive ABPP) [%],inhibition at 1 µM (FAAH; gel-based competitive ABPP) [%],inhibition at 1 µM (ABHD6; gel-based competitive ABPP) [%],IC50 (ABHD6) [nM],inhibition at 10 µM (PLA2G7; gel-based competitive ABPP) [%],inhibition at 10 µM (MAGL; gel-based competitive ABPP) [%],IC50 (MAGL) [nM],inhibition at 10 µM (FAAH; gel-based competitive ABPP) [%],IC50 (FAAH) [nM],inhibition at 10 µM (ABHD6; gel-based competitive ABPP) [%],inhibition at 1 µM (MAGL) [%],inhibition at 1 µM (FAAH) [%],IC50 (PLA2G7) [nM],Structure (SMILES)
< 25,> 75,25 to 75,< 25,< 25,> 75,,,,,,,,,,,,,,,"O=C(c1cnn(C(=O)N2CCN(Cc3cccnc3)CC2)c1)N1CCOCC1 [Example 53, (4-(Morpholine-4-carbonyl)-1H-pyrazol-1-yl)(4-(pyridin-3-ylmethyl)piperazin-1-yl)methanone]"
,,,,,,> 75,> 75,> 75,> 75,,,,,,,,,,,"Cc1cccc(CN2CCN(C(=O)n3cc(C(F)(F)F)cn3)CC2)c1 [Example 270, (4-(3-Methylbenzyl)piperazin-1-yl)(4-(trifluoromethyl)-1H-pyrazol-1-yl)methanone]"
> 75,> 75,25 to 75,> 75,> 75,> 75,,,,,100 to 1000,,,,,,,,,,"O=C(N1CCN(Cc2cccnc2)CC1)n1cc(-c2ccccc2)cn1 [Example 60, (4-Phenyl-1H-pyrazol-1-yl)(4-(pyridin-3-ylmethyl)piperazin-1-yl)methanone]"
,,,,,,< 25,> 75,> 75,< 25,> 1000,25 to 75,> 75,100 to 1000,> 75,< 100,> 75,,,,"CCN(Cc1cccc(OC)c1)C(=O)n1cc(C#N)cn1 [Example 249, 4-Cyano-N-ethyl-N-(3-methoxybenzyl)-1H-pyrazole-1-carboxamide]"
< 25,< 25,> 75,> 75,< 25,> 75,,,,,> 1000,,,> 1000,,100 to 1000,,25 to 75,> 75,,"CCN(Cc1cccc(Cl)c1)C(=O)n1cc(Cl)cn1 [Example 134, 4-Chloro-N-(3-chlorobenzyl)-N-ethyl-1H-pyrazole-1-carboxamide]"
< 25,> 75,< 25,25 to 75,25 to 75,> 75,,,,,,,,,,,,,,,"O=C(c1cnn(C(=O)N2CCN(Cc3nccs3)CC2)c1)N1CCOCC1 [Example 55, (4-(Morpholine-4-carbonyl)-1H-pyrazol-1-yl)(4-(thiazol-2-ylmethyl)piperazin-1-yl)methanone]"
< 25,25 to 75,> 75,> 75,> 75,> 75,,,,,100 to 1000,,,< 100,,< 100,,> 75,> 75,> 1000,"Cc1cc(-c2ccccc2)ccc1CN1CCN(C(=O)n2cc(Cl)cn2)CC1 [Example 137, (4-Chloro-1H-pyrazol-1-yl)(4-((3-methylbiphenyl-4-yl)methyl)piperazin-1-yl)methanone]"
> 75,> 75,> 75,> 75,> 75,> 75,,,,,100 to 1000,,,,,,,< 25,> 75,,"O=C(N1CCN(Cc2ccc3c(c2)OCO3)CC1)n1cc(-c2ccccc2)cn1 [Example 58, (4-(Benzo[d][1,3]dioxol-5-ylmethyl)piperazin-1-yl)(4-phenyl-1H-pyrazol-1-yl)methanone]"
,,,,,,< 25,> 75,> 75,> 75,,,,,,,,,,,"N#Cc1cnn(C(=O)N2CCCN(Cc3ccc(Oc4ccccc4)cc3)CC2)c1 [Example 301, 1-(4-(4-Phenoxybenzyl)-1,4-diazepane-1-carbonyl)-1H-pyrazole-4-carbonitrile]"
,< 25,< 25,< 25,,< 25,,,,,,,,,,,,,,,"Cc1cnn(C(=O)NCCCCc2ccccc2)c1 [Example 35, 4-Methyl-N-(4-phenylbutyl)-1H-pyrazole-1-carboxamide]"
> 75,> 75,> 75,> 75,> 75,> 75,,,,,,,,,,,,> 75,> 75,,"COc1cc(-c2ccccc2)ccc1CN1CCN(C(=O)n2cc(C#N)cn2)CC1 [Example 145, 1-(4-((3-Methoxybiphenyl-4-yl)methyl)piperazine-1-carbonyl)-1H-pyrazole-4-carbonitrile]"
< 25,> 75,> 75,> 75,> 75,> 75,,,,,100 to 1000,,,,,,,< 25,< 25,,"O=C(c1cnn(C(=O)N2CCN(Cc3ccc4c(c3)OCO4)CC2)c1)N1CCOCC1 [Example 51, (4-(Benzo[d][1,3]dioxol-5-ylmethyl)piperazin-1-yl)(4-(morpholine-4-carbonyl)-1H-pyrazol-1-yl)methanone]"
25 to 75,< 25,> 75,> 75,> 75,> 75,,,,,,,,,,,,> 75,> 75,,"CN(Cc1cccc(-c2ccncc2)c1)C(=O)n1cc(C(F)(F)F)cn1 [Example 222, N-methyl-N-(3-(pyridin-4-yl)benzyl)-4-(trifluoromethyl)-1H-pyrazole-1-carboxamide]"
< 25,,,,> 75,,,,,,100 to 1000,,,< 100,,100 to 1000,,> 75,> 75,100 to 1000,"O=C(N1CCN(Cc2ccccc2Cl)CC1)n1cc(Cl)cn1 [Example 224, (4-Chloro-1H-pyrazol-1-yl)(4-(2-chlorobenzyl)piperazin-1-yl)methanone]"
